We go through three molecules from ChEMBL document CHEMBL4840357, “Functionalized Dioxonaphthoimidazoliums: A Redox Cycling Chemotype with Potent Bactericidal Activities against Mycobacterium tuberculosis” (J Med Chem, 2021).

Molecules are shown by their SMILES. The source made the active and inactive calls. The calls are words filed in the database; no cut-off is given here.

Test [1] concerns Mycobacterium tuberculosis variant bovis BCG. Kind of test: Bactericidal activity against Mycobacterium bovis BCG ATCC 35734 assessed as reduction in colony forming unit at 8 times MIC measured after 21 days by time-kill assay. The test is classed as functional, organism-based. Conditions: time 21.0 day.
The test system is the same in test [2]. Briefly: Bactericidal activity against Mycobacterium bovis BCG ATCC 35734 assessed as fold reduction in viability at 4 times MIC measured over 14 days by time-kill assay. The test is classed as functional. The conditions noted are these: time 14 day.
For test [3] the test system is unchanged. Kind of test: Induction of oxidative stress Mycobacterium bovis BCG-pfurA-RFP ATCC 35734 assessed as activation of pfurA after 24 hrs by fluorescence assay. It is filed as functional, organism-based.
Test [4] has the same test system. Kind of test: Bactericidal activity against Mycobacterium bovis BCG ATCC 35734 at 0.5 to 1 times MIC90 incubated for 5 days in presence of thiourea. The test is classed as functional, organism-based. Conditions: time 5.0 day.
Test [5] has as its system Cell membrane. Kind of test: Induction of membrane permeabilization in Mycobacterium bovis BCG ATCC 35734 at 4 times MIC after 8 hrs by SYTO9 and PI staining based fluorescence assay. It is filed as functional, subcellular. Conditions: Mycobacterium tuberculosis variant bovis BCG.
Test [6] concerns Mycobacterium tuberculosis variant bovis BCG. Kind of test: Bactericidal activity against Mycobacterium bovis BCG ATCC 35734 assessed as reduction in colony forming count at 4 times MIC measured over 28 days by time-kill assay. The test is classed as functional, organism-based. Conditions: time 28.0 day.
The test system is the same in test [7]. Kind of test: Antimycobacterial activity against Mycobacterium bovis BCG ATCC 35734 carrying katG loss-of-function mutant assessed fold reduction in MIC at 1 to 2 times of MIC90 incubated for 5 days. The test is classed as functional. Conditions: time 5 day.
Test [8] has the same test system. Kind of test: Antimycobacterial activity against Mycobacterium bovis BCG ATCC 35734 carrying katG loss-of-function mutant assessed fold reduction in MIC at 1 to 2 times of MIC90 incubated for 5 days under solid agar medium. The test is classed as functional, organism-based. Conditions: time 5.0 day.
The test system is the same in test [9]. Briefly: Bactericidal activity against Mycobacterium bovis BCG ATCC 35734 at 0.5 to 1 times MIC90 incubated for 5 days in presence of TEMPO. Conditions: time 5.0 day. It is filed as functional, organism-based.
The test system is the same in test [10]. Kind of test: Induction of ROS generation in Mycobacterium bovis BCG ATCC 35734 at 2 times of MIC90 measured upto 24 hrs by cellrox-green reagent based assay. The test is classed as functional, organism-based. The conditions noted are these: time hrs <=24.
Test [11] shares this test system. Briefly: Antimycobacterial activity against Mycobacterium bovis BCG ATCC 35734 incubated for 5 days by broth dilution method. It is filed as functional. Conditions: ATCC 35734, 120 h, time 5 day.
Test [12] deals with Cell membrane. Kind of test: Induction of cell membrane depolarization in Mycobacterium bovis BCG ATCC 35734 at 4 times MIC after 8 hrs by DiOC2 dye based flourescence assay. The conditions noted are these: Mycobacterium tuberculosis variant bovis BCG. It is filed as functional, subcellular.
Test [13] concerns Cell membrane. Kind of test: Induction of cell envelope stress in Mycobacterium bovis BCG ATCC 35734 expressing piniBAC RFP at 100 times MIC90 after 24 hrs by fluorescence analysis. It is filed as functional, subcellular. The conditions noted are these: Mycobacterium tuberculosis variant bovis BCG.
The test system of test [14] is Mycobacterium tuberculosis variant bovis BCG. Kind of test: Bactericidal activity against Mycobacterium bovis BCG ATCC 35734 at 0.5 to 1 times MIC90 incubated for 5 days in presence of N-acetylcysteine. The test is classed as functional, organism-based. The conditions noted are these: time 5.0 day.
Test [15] has the same test system. Briefly: Antimycobacterial activity against Mycobacterium bovis BCG ATCC 35734 carrying katG loss-of-function mutant assessed fold reduction in MIC at 1 to 2 times of MIC90 incubated for 5 days under liquid medium. It is filed as functional, organism-based. Conditions: time 5.0 day.
For test [16], the system named is Mycobacterium tuberculosis H37Rv. Briefly: Activation of Mycobacterium tuberculosis NDH-2 overexpressed in mc24517 inverted membrane vesicles assessed as increase in NADH oxidation. It is filed as cell membranes. Conditions: Membrane vesicle, filed as activator.
For test [17], the system named is Mycobacterium tuberculosis variant bovis BCG. Briefly: Ratio of MIC for antimycobacterial activity against Mycobacterium bovis BCG ATCC 35734 in absence of glycerol to MIC for antimycobacterial activity against Mycobacterium bovis BCG ATCC 35734 in presence of glycerol. It is filed as functional.
The test system is the same in test [18]. Kind of test: Bactericidal activity against Mycobacterium bovis BCG ATCC 35734 assessed as reduction in colony forming unit at 0.5 to 1 times MIC90 incubated for 5 days. The test is classed as functional, organism-based. The conditions noted are these: time 5.0 day.
The test system is the same in test [19]. Briefly: Bactericidal activity against Mycobacterium bovis BCG ATCC 35734 assessed as fold reduction in viability at 40 times MIC90 preincubated for 20 days under oxygen deprived condition followed by compound addition and measured after 5 days. The test is classed as functional. Conditions: time 5 day.
Test [20] has the same test system. Briefly: Bactericidal activity against Mycobacterium bovis BCG ATCC 35734 incubated for 5 days by broth dilution method. It is filed as functional. The conditions noted are these: ATCC 35734, 120 h, time 5 day, read-out: MBC99.9.
Test [21] has the same test system. Kind of test: Induction of ROS generation in Mycobacterium bovis BCG ATCC 35734 after 90 mins by cellrox-green reagent based assay. It is filed as functional, organism-based.

As to `CCCCCCCCn1c2c([n+](CCCC)c1C)C(=O)c1ccccc1C2=O.[Br-]`, the outcome in test [1], in test [4], in [6], in test [8], in test [9] and in [10] was Active. For the same molecule, the result in [14], in test [15] and in test [18] was Active. Also, the “fold change (FC)” value in test [2] is 100000; in test [7], 2; in [16], 4.7; in [19], 10. The Activity entry in test [3] and in [21] was “Dose-Dependent Effect” each time. The result in [5], in [12] and in [13] was inactive. Also, in [11], the MIC50 was found to be 0.15 µM. In test [11], the MIC90 came out at 0.26 µM. In test [17], the Ratio was < 2. Also, in test [20], the MBC was 0.64 µM.
Regarding `CCCCn1c2c([n+](C3CCC4(CCCCC4)CC3)c1C)C(=O)c1ccccc1C2=O.[Br-]`, the Activity entry in test [3] and in [21] was “Dose-Dependent Effect” throughout. For the same molecule, the result in test [8] and in test [10] was Active. In test [11], the MIC50 stood at 0.13 µM. The same molecule displayed an MIC90 in test [11] of 0.3 µM. Also, the outcome in [13] and in test [15] was inactive. Also, the Ratio in test [17] was < 2. The MBC in test [20] is 1.3 µM.
Consider `CCCCCCCn1c2c([n+](CCCCC)c1C)C(=O)c1ccccc1C2=O.[Br-]`, for which the “fold change (FC)” value is given as 100000 in test [2], 2 in test [7] and 10 in test [19]. In addition, the Activity entry in [3] and in [21] was “Dose-Dependent Effect” in each case. The result in [5], in test [12] and in [13] was inactive. In test [6], the result was Active. This molecule also had an MIC50 in test [11] of 0.16 µM. In [11], this molecule displayed an MIC90 of 0.27 µM. Moreover, in [17], the Ratio was < 2. The MBC in test [20] came out at 0.64 µM.
